Results on two molecules are retold here after paper PMC12112332, “Characterization of Novel and Known Activators of Cannabinoid Receptor Subtype 2 Reveals Mixed Pharmacology That Differentiates Mycophenolate Mofetil and GW-842,166X from MDA7” (International Journal of Molecular Sciences, 2025).

Like-named read-outs stand apart in the source and are kept apart here.

Common to all, as to type: cell-based
In experiment [1] the target is T1, M4 muscarinic receptor expressed in HEK/GIRK cells (no CB receptor) (Homo sapiens, UniProt P08173).
T1 construct: host or cells: HEK/GIRK cells without CB receptor
T1 sequence (P08173 1-479): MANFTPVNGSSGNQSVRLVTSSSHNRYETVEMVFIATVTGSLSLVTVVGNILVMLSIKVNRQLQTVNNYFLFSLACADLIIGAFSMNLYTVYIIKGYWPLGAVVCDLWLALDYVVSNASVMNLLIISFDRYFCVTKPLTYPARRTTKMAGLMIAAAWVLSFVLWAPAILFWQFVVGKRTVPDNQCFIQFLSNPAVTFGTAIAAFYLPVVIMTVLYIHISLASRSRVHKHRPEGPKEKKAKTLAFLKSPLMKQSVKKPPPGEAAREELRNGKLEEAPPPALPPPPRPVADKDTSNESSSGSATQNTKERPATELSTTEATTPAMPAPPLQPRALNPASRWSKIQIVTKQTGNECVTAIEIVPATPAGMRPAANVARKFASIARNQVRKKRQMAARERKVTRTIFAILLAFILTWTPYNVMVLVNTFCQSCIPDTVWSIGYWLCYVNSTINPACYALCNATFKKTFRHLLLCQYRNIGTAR
As to the kind of experiment: Thallium flux assay in parental HEK/GIRK cells (no CB receptor), acetylcholine as agonist. Conditions: presence of EC20 acetylcholine, cells without CB receptor. An excerpt:
Mycophenolate mofetil is an immunosuppressant used to prevent organ transplant rejection and to treat autoimmune disorders such as lupus. To determine if mycophenolate mofetil exerts its activity in the thallium flux assay through rCB2, we tested it for activity in HEK cells expressing GIRK channels but not rCB2. Submaximal concentrations of acetylcholine were used as the agonist, targeting an M4 muscarinic receptor expressed in these HEK/GIRK cells. […] It was also critical to determine if mycophenolate mofetil was selective for the rCB2 versus rCB1 receptors, as activation of rCB1 receptors can have negative side effects, including anxiety, paranoia, and psychosis. […]
Thallium flux assays were performed as previously described in Niswender et al., 2008 [31]. […] Thallium flux was measured using the Hamamatsu FDSS/μCELL Kinetic Plate Imager (Bridgewater, NJ, USA). After the establishment of a fluorescence baseline (excitation, 480 ± 20 nm; emission, 540 ± 30 nm), 20 µL (2×) of test compound was added to the cells at 1 s and the response was measured. […] Raw kinetic data were analyzed in a multi-step process: (1) Fluorescence readings for each time point in a well were divided by the fluorescence reading at the initial time point to account for differences in cell number, non-uniform illumination, and dye-loading. […]

The target of another experiment is Human CB2 (Homo sapiens, UniProt P34972). The experiment in a line: Activity at the human CB2 receptor (thallium flux).
Human CB2, sequence (P34972 whole entry): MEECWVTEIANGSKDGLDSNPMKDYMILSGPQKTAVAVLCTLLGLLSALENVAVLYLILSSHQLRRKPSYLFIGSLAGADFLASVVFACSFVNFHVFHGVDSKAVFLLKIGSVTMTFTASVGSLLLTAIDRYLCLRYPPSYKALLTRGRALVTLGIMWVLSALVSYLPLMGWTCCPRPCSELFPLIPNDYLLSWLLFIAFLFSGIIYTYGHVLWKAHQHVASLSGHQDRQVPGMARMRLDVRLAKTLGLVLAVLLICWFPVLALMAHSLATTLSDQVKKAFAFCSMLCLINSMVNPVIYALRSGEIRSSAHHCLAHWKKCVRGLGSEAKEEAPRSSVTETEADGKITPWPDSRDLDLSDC
Another experiment concerns the target T2, rat CB2 (Rattus norvegicus, UniProt Q9QZN9).
T2 sequence (Q9QZN9 1-360): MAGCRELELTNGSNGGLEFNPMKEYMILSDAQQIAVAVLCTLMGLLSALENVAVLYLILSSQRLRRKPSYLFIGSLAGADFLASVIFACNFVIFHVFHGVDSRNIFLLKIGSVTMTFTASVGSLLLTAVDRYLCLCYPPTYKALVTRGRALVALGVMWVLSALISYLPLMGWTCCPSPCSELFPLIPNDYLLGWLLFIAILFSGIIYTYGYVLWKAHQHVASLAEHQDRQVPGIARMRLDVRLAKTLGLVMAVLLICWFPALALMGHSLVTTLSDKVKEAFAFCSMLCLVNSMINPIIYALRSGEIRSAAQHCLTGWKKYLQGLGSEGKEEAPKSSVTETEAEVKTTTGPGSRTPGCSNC
The experiment in a line: PI hydrolysis (IP1) assay in HEK/Gqi9 cells expressing rat CB2. On the set-up: expressed in transfected cells. As to conditions: rCB2/Gqi9 cells. As for the experimental part: In a complementary assay, we used phosphoinositide (PI) hydrolysis in the presence of the chimeric G protein, Gqi9, to assess activity.
One day prior to experimentation, selected HEK/Gqi9 monoclonal cells stably expressing rat CB2 were plated onto poly-D-lysine coated clear-bottom 384-well plates (15,000 cells per well) in DMEM supplemented with 10% FBS and 20 mM HEPES. Ten minutes prior to the assay, the cell culture medium was replaced with 20 µL 37 °C Hank’s balanced salt solution (HBSS; with Ca^2+, Mg^2+, glucose). IP1 stimulation was then initiated by adding 5 µL of 5× agonist dissolved in HBSS plus 40 mM Li^+, and cells were incubated for an additional hour before aspiration and addition of Lysis Buffer. IP1 levels were determined using the Cisbio HTRF IP-ONE assay kit according to the manufacturer’s instructions, and fluorescence was measured using an Envision plate reader (PerkinElmer, Waltham, MA, USA). Data were acquired as HTRF ratio (665/620) and expressed as nanomolar levels of IP1.

Take `COc1c(C)c2c(c(O)c1C/C=C(\C)CCC(=O)OCCN1CCOCC1)C(=O)OC2` [Mycophenolate mofetil]: the “HEK GIRK (+) ACh pEC50 ± SEM % Max ± SEM” value in experiment [1] is on record as “Inactive”. Moreover, at Human CB2, the “human CB2 receptor % Max” value is on record as 36 ± 4%. For the same molecule, the EC50 is 2000 nM at Human CB2 (read-out: human CB2 receptor pEC50 (converted)); 521 nM at rat CB2 (absence of 2-AG, read-out: PI hydrolysis potency, absence of 2-AG); 700 nM at rat CB2 (presence of EC20 2-AG, read-out: PI hydrolysis potency, presence of 2-AG). The “PI hydrolysis Max IP1, absence of 2-AG” value at rat CB2 (absence of 2-AG, IP1 concentration) amounted to 438 ± 32 nM. Moreover, on rat CB2 (presence of EC20 2-AG, IP1 concentration), the “PI hydrolysis Max IP1, presence of 2-AG” value stood at 633 ± 122 nM.
For `COc1c(C)c2c(c(O)c1C/C=C(\C)CCC(=O)O)C(=O)OC2` [Mycophenolic acid], the “HEK GIRK (+) ACh pEC50 ± SEM % Max ± SEM” value in experiment [1] is recorded as “Inactive”.
